Patent publication US11419335B2, “N-arylated analogues and uses thereof” (University of Florida Research Foundation, Incorporated, priority 2016, dated 2022)
Values after ≈ are worked out from the molar mass of the structure shown.

Tests used:
C. albicans SC5314 = assay: Fungal MIC susceptibility assay, C. albicans; assay type: cell-based, Candida albicans; details: Table 4, antifungal
Description: (§1) Fungal minimum inhibition concentrations (MICs) were determined using standard microdilution methods according to the Clinical and Laboratory Standards Institute document M27-A3. The test compound concentration ranged from 0.01 to 100 μM. Amphotericin B (AmB) and itraconazole (ITC) (Fisher Scientific) were included as positive controls. DMSO, the vehicle control, was used at ≤1% v/v for these experiments. The fungal M27-A3 standard MIC assay protocol requires the following inoculum preparation protocol: The organisms were cultured onto PDA medium at 35° C. The inoculum is prepared by picking five colonies from 24-hour old culture of Candida spp. or 48-hour old culture of C. neoformans. The inoculum was suspended in 5 ml of sterile water, the resulting suspension was vortexed for 15 seconds and the cell density adjusted (by adding more sterile water) to an OD530=0.30, which yields a suspension of 1×10^6 to 5×10^6 cells per mL. The suspension was diluted 50 times and then 20 times using RPMI 1640 medium to obtain the two times test inoculum (1×10^3 to 5×10^3 cells per mL). The following steps are the same with the standard bacterial MIC protocol using 96-well plates. NOTE: RPMI 1640 medium was used in the fungal MIC assay (for both cell inoculum and compound dilution).

C. neoformans ATCC 66031 = assay: Fungal MIC susceptibility assay, C. neoformans; assay type: cell-based; details: Table 4, antifungal
Description: as §1

[1] = test system: methicillin-resistant Staphylococcus epidermidis (MRSE strain ATCC 35984); assay: MIC broth microdilution, MRSE 35984; assay type: cell-based; details: Staphylococcus epidermidis; Table 4; read-out: MIC MRSE 35984
Description: (§2) The minimum inhibitory concentration (MIC) for each tested compound was determined by the broth microdilution method as recommended by the Clinical and Laboratory Standards Institute (CLSI). In a 96-well plate, eleven two-fold serial dilutions of each compound were made in a final volume of 100 μL Luria Broth. Each well was inoculated with ˜10^5 bacterial cells at the initial time of incubation, prepared from a fresh log phase culture (OD600 of 0.5 to 1.0 depending on bacterial strain). The MIC was defined as the lowest concentration of compound that prevented bacterial growth after incubating 16 to 18 hours at 37° C. (MIC values were supported by spectrophotometric readings at OD600). DMSO served as our vehicle and negative control in each microdilution MIC assay. DMSO was serially diluted with a top concentration of 1% v/v.
as §2, with “for each compound was” for “for each tested compound was”, “Standards Institute (CLSI).^6 In a” for “Standards Institute (CLSI). In a”, “concentration of test compound that” for “concentration of compound that”, “37° C. The concentration range tested for each compound during this study was 0.10 to 100 μM. DMSO served” for “37° C. (MIC values were supported by spectrophotometric readings at OD600). DMSO served”, “1% v/v. All MIC values were obtained from a minimum of three independent experiments.” for “1% v/v.”

[2] = test system: Pseudomonas aeruginosa (PAO1); assay: MIC broth microdilution, PAO1; assay type: cell-based; details: Pseudomonas aeruginosa, PAO1; Table 4
Description: as §2
as §2, with “for each compound was” for “for each tested compound was”, “Standards Institute (CLSI).^6 In a” for “Standards Institute (CLSI). In a”, “concentration of test compound that” for “concentration of compound that”, “37° C. The concentration range tested for each compound during this study was 0.10 to 100 μM. DMSO served” for “37° C. (MIC values were supported by spectrophotometric readings at OD600). DMSO served”, “1% v/v. All MIC values were obtained from a minimum of three independent experiments.” for “1% v/v.”

[3] = test system: Klebsiella pneumoniae (ATCC 13883); assay: MIC broth microdilution, K. pneumoniae 13883; assay type: cell-based; details: Klebsiella pneumoniae, ATCC13883; Table 4; read-out: MIC K. pneu. 13883
Description: as §2
as §2, with “for each compound was” for “for each tested compound was”, “Standards Institute (CLSI).^6 In a” for “Standards Institute (CLSI). In a”, “concentration of test compound that” for “concentration of compound that”, “37° C. The concentration range tested for each compound during this study was 0.10 to 100 μM. DMSO served” for “37° C. (MIC values were supported by spectrophotometric readings at OD600). DMSO served”, “1% v/v. All MIC values were obtained from a minimum of three independent experiments.” for “1% v/v.”

[4] = test system: methicillin-resistant Staphylococcus aureus MRSA-2 (clinical isolate); assay: MIC broth microdilution, MRSA-2; assay type: cell-based; details: Staphylococcus aureus, MRSA, Table 4; read-out: MIC MRSA-2
Description: as §2
as §2, with “for each compound was” for “for each tested compound was”, “Standards Institute (CLSI).^6 In a” for “Standards Institute (CLSI). In a”, “concentration of test compound that” for “concentration of compound that”, “37° C. The concentration range tested for each compound during this study was 0.10 to 100 μM. DMSO served” for “37° C. (MIC values were supported by spectrophotometric readings at OD600). DMSO served”, “1% v/v. All MIC values were obtained from a minimum of three independent experiments.” for “1% v/v.”

MRSA BAA-1707 = assay: MIC broth microdilution, MRSA BAA-1707; assay type: cell-based, Staphylococcus aureus; details: Staphylococcus aureus; Table 4; read-out: MIC MRSA 1707
Description: as §2, with “The MIC was defined as the lowest concentration of compound that prevented bacterial growth after incubating 16 to 18 hours at 37° C.” left out
Each well was inoculated with ˜10^5 bacterial cells at the initial time of incubation, prepared from a fresh log phase culture (OD600 of 0.5 to 1.0 depending on bacterial strain). […] The concentration range tested for each compound during this study was 0.10 to 100 μM. DMSO served as our vehicle and negative control in each microdilution MIC assay. DMSO was serially diluted with a top concentration of 1% v/v. All MIC values were obtained from a minimum of three independent experiments.

[5] = test system: Acinetobacter baumannii (ATCC 1794); assay: MIC broth microdilution, A. baumannii 1794; assay type: cell-based; details: Acinetobacter baumannii, ATCC1794; Table 4; read-out: MIC A. bau. 1794
Description: as §2
as §2, with “for each compound was” for “for each tested compound was”, “Standards Institute (CLSI).^6 In a” for “Standards Institute (CLSI). In a”, “concentration of test compound that” for “concentration of compound that”, “37° C. The concentration range tested for each compound during this study was 0.10 to 100 μM. DMSO served” for “37° C. (MIC values were supported by spectrophotometric readings at OD600). DMSO served”, “1% v/v. All MIC values were obtained from a minimum of three independent experiments.” for “1% v/v.”

[6] = test system: Escherichia coli clinical isolate (UAEC-1); assay: MIC broth microdilution, UAEC-1; assay type: cell-based; details: Escherichia coli; Table 4
Description: as §2
as §2, with “for each compound was” for “for each tested compound was”, “Standards Institute (CLSI).^6 In a” for “Standards Institute (CLSI). In a”, “concentration of test compound that” for “concentration of compound that”, “37° C. The concentration range tested for each compound during this study was 0.10 to 100 μM. DMSO served” for “37° C. (MIC values were supported by spectrophotometric readings at OD600). DMSO served”, “1% v/v. All MIC values were obtained from a minimum of three independent experiments.” for “1% v/v.”

[7] = test system: vancomycin-resistant Enterococcus faecium (VRE strain ATCC 700221); assay: MIC broth microdilution, VRE 700221; assay type: cell-based; details: Table 4; read-out: MIC VRE 700221
Description: as §2
as §2, with “for each compound was” for “for each tested compound was”, “Standards Institute (CLSI).^6 In a” for “Standards Institute (CLSI). In a”, “concentration of test compound that” for “concentration of compound that”, “37° C. The concentration range tested for each compound during this study was 0.10 to 100 μM. DMSO served” for “37° C. (MIC values were supported by spectrophotometric readings at OD600). DMSO served”, “1% v/v. All MIC values were obtained from a minimum of three independent experiments.” for “1% v/v.”

Compound | MIC (C. albicans SC5314; Candida albicans, SC5314) [µM] | MIC (C. neoformans ATCC 66031; Cryptococcus neoformans, ATCC66031, read-out: MIC C. neof 66031) [µM] | MIC [1] [µM] | MIC [2] [µM] | MIC [3] [µM] | MIC [4] [µM] | MIC (MRSA BAA-1707) [µM] | MIC [5] [µM] | MIC [6] [µM] | MIC [7] [µM] | MIC C. albicans SC5314 (C. albicans SC5314) [µM] | MIC C. neof 66031 (C. neoformans ATCC 66031) [µM]
CCCCCCCCCCCCCCCCn1cc[n+](Cc2ccc(C[n+]3ccn(CCCCCCCCCCCCCCCC)c3C)cc2)c1C [Compound 28] | 50 | 25 | > 100 | > 100 | > 100 | > 100 | > 100 | > 100 | > 100 | > 100 |  | 
C[C@@H]1[C@H](O)[C@@H](C)/C=C/C=C/C=C/C=C/C=C/C=C/C=C/[C@H](O[C@@H]2O[C@H](C)[C@@H](O)[C@H](N)[C@@H]2O)C[C@@H]2O[C@](O)(C[C@@H](O)C[C@@H](O)[C@H](O)CC[C@@H](O)C[C@@H](O)CC(=O)O[C@H]1C)C[C@H](O)[C@H]2C(=O)O [Amp. B, Amphotericin B, reference compound] |  |  |  |  |  |  |  |  |  |  | 0.78 (≈ 0.721 µg/mL) | 0.1 (≈ 0.0924 µg/mL)
